In publication PMC9781268, “2-Arylpropionic Acid Pyrazolamides as Cannabinoid CB2 Receptor Inverse Agonists Endowed with Anti-Inflammatory Properties” (Pharmaceuticals, 2022):

Assays:
[1] = parameters: method as in ZHU et al., 2002; conditions: Table S1, PAMPA-GTI, drugs used as standard; ref ZHU et al., 2002; cited from earlier work
[2] = Parallel artificial membrane permeability assay, gastrointestinal (PAMPA-GI / PAMPA-GTI); conditions: Table S1, PAMPA-GTI
Experimental: A 10 mM solution of each compound (tests and controls) was prepared in DMSO. Then, in a 5 mL glass flask, 250 µL of the freshly prepared solution was homogenized with 4750 µL of PBS at pH 6.6 to a concentration of 10 mM. The solution was then filtered in a 0.45 µm PVDF filter and set aside. Then, 180 µL of a solution of phosphate-bufffered saline (PBS, pH 7.4):DMSO (95:5) was added to the wells of the receptor plate, and 5 µL of the soy L-α-phosphatidylcholine lipid solution (20 mg/mL in dodecane) was added to the wells of the donor plate. After 5 min, the donor plate received 180 µL of the reserved solution containing each compound. […] After this period, the donor plate was removed, and the contents of the recipient plate were transferred to a UV reading plate and read (SpectraMax 5, Molecular Devices) at the maximum wavelengths for each compound. The blank was prepared with 180 µL of PBS solution (pH 7.4):DMSO (95:5). The experiments were carried out in triplicate with two different analyses (n = 2) [37]. The optical density values obtained from the readings at each selected wavelength for each of the compounds were analyzed by comparison with the values of the controls. These values were used to determine the absorbed fraction (Fa %) using the JMP® program version 10.0.

[3] = Parallel artificial membrane permeability assay, blood-brain barrier (PAMPA-BBB)
Experimental: In a 5 mL glass vial, 1 mg of each compound (test or control) was dissolved in 1 mL of ethanol. Then, 500 μL of ethanol and 3.5 mL of PBS at pH 7.4 were added to this solution. […] After 5 min, the donor plate received 180 μL of each compound solution in triplicate. […] The experiments were performed in triplicate with two different analyses (n = 2).

[4] = Table S2, PAMPA-BBB, drugs used as standard; cited from earlier work
[5] = system: formalin-induced licking behavior in mice; experiment: Formalin-induced licking behavior; assay type: in vivo, Swiss Webster mice; conditions: morphine 2.5 mg/kg i.p., ASA 200 mg/kg p.o., LASSBio-2265 1, 3 and 10 mg/kg p.o., compared to vehicle
Experimental: This assay was performed as described by Hunskaar et al. and adapted by Gomes et al.. This model was characterized by a response that occurred in two phases. The first phase (acute neurogenic pain) occurred during the first 5 min after the intraplantar injection of formalin, and the second phase (inflammatory pain) occurred 15 to 30 min post-injection. Mice were pretreated with oral doses of LASSBio-2265 (11, at 1, 3 or 10 mg/kg, p.o.), morphine (2.5 mg/kg, i.p.), acetylsalicylic acid (ASA, 200 mg/kg, p.o.), or the vehicle (same amount of DMSO used to solubilize the substances + NaCl 0.9%) 60 min before the administration of formalin. […] Then, mice (n = 7 per group) received 20 μL of formalin (2.5% v/v) in the dorsal surface of the left hind paw. The time that the mice spent licking the injected paw was immediately recorded. […] The final volume administered to mice was 0.1 mL.

CB2 receptor = molecular target: CB2 receptor; parameters: method as in PMID 22172309; conditions: cited from earlier work
CB1 receptors = system: CB1 receptors; parameters: method as in PMID 22172309; conditions: cited from earlier work
[6] = PAMPA, 2.75 h, 0.2 mg/mL, pH 7.4

In the case of `O=C(O)Cc1ccccc1Nc1c(Cl)cccc1Cl` [Diclofenac, reference compound], the “Pe Lit” value [1] is given as 12,5 10-6cm/s.
With `Nc1nc2c(ncn2COCCO)c(=O)[nH]1` [Acyclovir, reference compound] the “Pe Exp” value [2] was 0,08 10-6 cm/s.
For `CC(=O)N1CCN(c2ccc(OCC3COC(Cn4ccnc4)(c4ccc(Cl)cc4Cl)O3)cc2)CC1` (centres unmarked) [Ketoconazole, reference compound], the “Pe Lit” value [1] is given as 3,3 10-6cm/s, the Classification [2] is given as “HIGH (high intestinal permeability: >70%)” and the “Pe Exp” value [2] is given as 4,93 10-6 cm/s. The Fa ([2]; absorbed fraction) was 84,68%.
In the case of `Cn1c(=O)c2c(ncn2C)n(C)c1=O` [Caffeine, reference compound], the Pe experimental [3, 6] is listed as 0,81 10-6 cm s-1, the Classification ([3]; Table S2, PAMPA-BBB) is listed as “CNS -” and the Pe literatura [4] is listed as 1,3 10-6 cm s-1.
In the case of `CCn1cc(C(=O)O)c(=O)c2cc(F)c(N3CCNCC3)nc21` [Enoxacin, reference compound], the Pe experimental [3, 6] is given as 0,53 10-6 cm s-1, the Classification ([3]; Table S2, PAMPA-BBB) is given as “CNS -” and the Pe literatura [4] is given as 0,9 10-6 cm s-1.
In the case of `O=C(O)c1cc(/N=N/c2ccc(S(=O)(=O)Nc3ccccn3)cc2)ccc1O` [Sulfassalazine], the “Pe Lit” value [1] is given as 0,3 10-6cm/s.
In the case of `CN1CC[C@]23c4c5ccc(O)c4O[C@H]2[C@@H](O)C=C[C@H]3[C@H]1C5` [morphine, reference compound], the “Analgesia in the first phase of the formalin test” value [5] is reported as “promoted significant analgesia”.
In the case of `CCCCC/C=C\C/C=C\C/C=C\C/C=C\CCCC(=O)N(C)c1c(C)n(C)n(-c2ccccc2)c1=O` [Compound 6], the Ki (CB2 receptor; CB2 receptor) is listed as 3000 nM, the “Affinity for CB2 receptors” value (CB2 receptor) is listed as “micromolar affinity” and the “Affinity for CB1 receptors” value (CB1 receptors) is listed as “micromolar affinity”.
For `CN1C(=O)CN=C(c2ccccc2)c2cc(Cl)ccc21` [Diazepam, reference compound], the Classification ([3]; Table S2, PAMPA-BBB) is given as “CNS +”, the Pe experimental ([3]; Table S2, PAMPA-BBB) is given as 14,30 10-6 cm s-1 and the Pe literatura [4] is given as 16 10-6 cm s-1.
